# “Also recorded” adds a separate entry of the source.
# Test system: rats having DREZs avulsed at T13/L1
# Assay: Allodynia (von Frey test) in rat T13/L1 DREZ avulsion model of central neuropathic pain
# Format: in vivo
# Method: Rats were anesthetized using isoflurane. Under aseptic condition, the skin was incised in the midline along the posterior thoracolumbar region. The paravertebral muscles were retracted laterally to expose the posterior aspect of the spinal laminae. Laminectomies were performed and the dura mater then incised along the midline to expose the dorsal rootlets of T13 and L1. The dorsal rootlets of T13 and L1 were then avulsed out of the spinal cord on the left side using micronstrumentation. Hemostasis was obtained and a layer of gelfoam placed over the dura. The wound was closed in layers. Perioperative antibiotics were administered in prophylaxis against infection. Subject rats were tested for allodynia of the hindpaws with the von Frey hair test, beginning day one post surgery and continuing daily over the subsequent four weeks. Rat animal model was generated similar to above. In one experiment, DREZ avulsion was unilateral (FIG. 2). In one experiment, DREZ avulsion was bilateral (FIG. 3). Ibudilast was delivered intrathecally daily in a corn oil carrier, with sham controls receiving only the corn oil. […] AV411 was administered to animals avulsed at the T13 and L1 dorsal root entry zones. The compound AV411 was administered to animals subject to the T13 and L1 hind paws. […] The reversal begins after 5-6 injections and continues to reverse behavior until day 33. The contralateral paw began to resolve at day 28 and the ipsilateral paw was still sensitive at day 33. […] Response thresholds on the von Frey test were recorded prior to and across a timecourse after avulsion surgery. Beginning on Day 12 post-surgery, rats (n=4/group) received once daily s.c. injections of either the glial activation inhibitor AV411/Ibudilast (Sigma; 5-mg/kg or 10-mg/kg) or equivolume vehicle (corn oil; 0.5-ml/kg). Daily drug treatment and intermittent behavioral testing continued through 33 days after surgery.
smiles,measurement,setting,value
"CC(C)C(=O)c1c(C(C)C)nn2ccccc12 [AV411, 2-methyl-1-(2-propan-2-ylpyrazolo[1,5-a]pyridin-3-yl)propan-1-one]",onset of reversal of allodynia,once daily s.c. 5-mg/kg or 10-mg/kg from Day 12 post-surgery,5-6 injections
same,effect on allodynia induced by unilateral T13/L1 dorsal root avulsion (von Frey test),once daily s.c. 5-mg/kg or 10-mg/kg from Day 12 post-surgery through day 33,reversed allodynia; also recorded: induces bilateral mechanical allodynia; also recorded: reverses bilateral allodynia
same,comparison of the 5 mg and 10 mg dose on allodynia,once daily s.c. 5-mg/kg vs 10-mg/kg,not differences between the 5 mg and 10 mg dose
same,day until which reversal of behavior continues,"once daily s.c. from Day 12 post-surgery, days after surgery",≤ 33 days
same,effect on allodynia in the model,"unilateral (FIG. 2) or bilateral (FIG. 3) DREZ avulsion, delivered intrathecally daily in corn oil carrier",decreases allodynia

# Reference: patent US20110229412A1, “ANIMAL MODEL OF CENTRAL NEUROPATHIC PAIN AND MEHTODS OF MAKING AND USING THE SAME” (priority 2008, published 2011)
